The values below come from ChEMBL document CHEMBL3045699, “Three-dimensional quantitative structureactivity relationship approach for the prediction of the antimycobacterial activity of 4-oxo-dihydroquinoline-3-carboxylic acid derivatives” (2008).

Structures are written as SMILES. ≈ marks a conversion by molar mass, not a printed value.

The test system of the test is Mycobacterium tuberculosis. Put plainly: Antimycobacterial activity against Mycobacterium tuberculosis. The test is classed as functional. As to conditions: for MIC: Mycobacterium tuberculosis.

Turning to `CC1CN(c2ccc3c(=O)c(C(=O)O)cn(-c4c(F)cccc4F)c3c2)CCN1` (configuration not stated), the “log(1/C)” value worked out at 2.922 and the lowest concentration to inhibit growth (MIC) was 1.2 µM (≈ 0.478 µg/mL).

`CC1CN(c2ccc3c(=O)c(C(=O)O)cn(C(C)(C)C)c3c2)CCN1` (configuration not stated): the “log(1/C)” value was 3.78 and the minimum inhibitory concentration (MIC) (commonly the lowest concentration found to suppress growth) was found to be 0.166 µM (≈ 0.057 µg/mL).

As for `CC1CN(c2ccc3c(=O)c(C(=O)O)cn(C(C)(C)C)c3c2)CC(C)N1` (configuration not stated), the “log(1/C)” value is 3.796 and the MIC was determined as 0.16 µM (≈ 0.0572 µg/mL).

Take `CCN1CCN(c2ccc3c(=O)c(C(=O)O)cn(C(C)(C)C)c3c2)CC1`: the “log(1/C)” value was 3.461 and it took 0.346 µM (≈ 0.124 µg/mL) to inhibit growth (MIC).

As for `CC(C)(C)n1cc(C(=O)O)c(=O)c2ccc(N3CCC(N)C3)cc21` (configuration not stated), the “log(1/C)” value came to 3.427 and the MIC was found to be 0.374 µM (≈ 0.123 µg/mL).

As for `CNCC1CCN(c2ccc3c(=O)c(C(=O)O)cn(C(C)(C)C)c3c2)C1` (configuration not stated), the “log(1/C)” value is recorded as 3.177 and the MIC is 0.666 µM (≈ 0.238 µg/mL).

On to `CC(C)n1cc(C(=O)O)c(=O)c2ccc(N3CCNCC3)cc21`, for which the “log(1/C)” value worked out at 1.921 and the MIC was 12 µM (≈ 3.78 µg/mL).

For `CC1CN(c2ccc3c(=O)c(C(=O)O)cn(C(C)C)c3c2)CCN1` (configuration not stated), the “log(1/C)” value is recorded as 2.24 and the MIC worked out at 5.76 µM (≈ 1.9 µg/mL).

Consider `CC1CN(c2ccc3c(=O)c(C(=O)O)cn(C(C)C)c3c2)CC(C)N1` (configuration not stated), for which the “log(1/C)” value came out at 2.257 and inhibition of growth (MIC) required 5.53 µM (≈ 1.9 µg/mL).

`CCN1CCN(c2ccc3c(=O)c(C(=O)O)cn(C(C)C)c3c2)CC1`: the “log(1/C)” value stood at 1.956 and the MIC was 11.1 µM (≈ 3.8 µg/mL).

As for `CC(C)n1cc(C(=O)O)c(=O)c2ccc(N3CCC(N)C3)cc21` (configuration not stated), the “log(1/C)” value came out at 2.222 and the MIC was found to be 6 µM (≈ 1.89 µg/mL).

For `CNCC1CCN(c2ccc3c(=O)c(C(=O)O)cn(C(C)C)c3c2)C1` (configuration not stated), the “log(1/C)” value turned out to be 1.655 and inhibition of growth (MIC) required 22.1 µM (≈ 7.6 µg/mL).

For the compound `O=C(O)c1cn(C2CCC2)c2cc(N3CCNCC3)ccc2c1=O`, the “log(1/C)” value stood at 2.237 and 5.79 µM (≈ 1.9 µg/mL) was the least that counted as inhibitory (MIC).

As for `CC1CN(c2ccc3c(=O)c(C(=O)O)cn(C4CCC4)c3c2)CCN1` (configuration not stated), the “log(1/C)” value stood at 2.556 and the MIC stood at 2.78 µM (≈ 0.95 µg/mL).

Consider `CC1CN(c2ccc3c(=O)c(C(=O)O)cn(C4CCC4)c3c2)CC(C)N1` (configuration not stated), for which the “log(1/C)” value was 2.873 and the MIC turned out to be 1.34 µM (≈ 0.476 µg/mL).

As for `CCN1CCN(c2ccc3c(=O)c(C(=O)O)cn(C4CCC4)c3c2)CC1`, the “log(1/C)” value came out at 2.271 and inhibition of growth (MIC) required 5.36 µM (≈ 1.9 µg/mL).

As to `NC1CCN(c2ccc3c(=O)c(C(=O)O)cn(C4CCC4)c3c2)C1` (configuration not stated), the “log(1/C)” value is given as 2.556 and it took 2.78 µM (≈ 0.911 µg/mL) to inhibit growth (MIC).

As to `CNCC1CCN(c2ccc3c(=O)c(C(=O)O)cn(C4CCC4)c3c2)C1` (configuration not stated), the “log(1/C)” value amounted to 1.97 and the minimal inhibitory concentration (MIC) was 10.7 µM (≈ 3.81 µg/mL).

In the case of `O=C(O)c1cn(-c2c(F)cccc2F)c2cc(N3CCNCC3)ccc2c1=O`, the “log(1/C)” value was found to be 2.907 and the MIC amounted to 1.24 µM (≈ 0.478 µg/mL).

For the compound `CN1CCN(c2ccc3c(=O)c(C(=O)O)cn(-c4c(F)cccc4F)c3c2)CC1`, the “log(1/C)” value was 2.922 and the minimum inhibitory concentration (MIC) stood at 1.2 µM (≈ 0.478 µg/mL).

As to `CC1CN(c2ccc3c(=O)c(C(=O)O)cn(-c4c(F)cccc4F)c3c2)CC(C)N1` (configuration not stated), the “log(1/C)” value is 2.936 and inhibition of growth (MIC) required 1.16 µM (≈ 0.479 µg/mL).

In the case of `CCC1CN(c2ccc3c(=O)c(C(=O)O)cn(-c4c(F)cccc4F)c3c2)CCN1` (configuration not stated), the “log(1/C)” value is reported as 2.635 and the minimum inhibitory concentration (MIC) turned out to be 2.32 µM (≈ 0.958 µg/mL).

As to `CCN1CCN(c2ccc3c(=O)c(C(=O)O)cn(-c4c(F)cccc4F)c3c2)CC1`, the “log(1/C)” value is reported as 2.635 and the lowest concentration to inhibit growth (MIC) was 2.32 µM (≈ 0.958 µg/mL).

For `CC(C)N1CCN(c2ccc3c(=O)c(C(=O)O)cn(-c4c(F)cccc4F)c3c2)CC1`, the “log(1/C)” value was 2.649 and the MIC was 2.25 µM (≈ 0.96 µg/mL).

As to `CC(C)CN1CCN(c2ccc3c(=O)c(C(=O)O)cn(-c4c(F)cccc4F)c3c2)CC1`, the “log(1/C)” value turned out to be 2.06 and the MIC was found to be 8.71 µM (≈ 3.84 µg/mL).

In the case of `CCCCN1CCN(c2ccc3c(=O)c(C(=O)O)cn(-c4c(F)cccc4F)c3c2)CC1`, the “log(1/C)” value is given as 2.361 and the MIC was determined as 4.35 µM (≈ 1.92 µg/mL).

On to `NC1CCN(c2ccc3c(=O)c(C(=O)O)cn(-c4c(F)cccc4F)c3c2)C1` (configuration not stated), for which the “log(1/C)” value came out at 3.492 and the MIC was determined as 0.322 µM (≈ 0.124 µg/mL).

In the case of `CNCC1CCN(c2ccc3c(=O)c(C(=O)O)cn(-c4c(F)cccc4F)c3c2)C1` (configuration not stated), the “log(1/C)” value is on record as 3.237 and the MIC was 0.579 µM (≈ 0.239 µg/mL).

For the compound `CCNCC1CCN(c2ccc3c(=O)c(C(=O)O)cn(-c4c(F)cccc4F)c3c2)C1` (configuration not stated), the “log(1/C)” value came to 2.95 and the minimum inhibitory concentration (MIC) came out at 1.12 µM (≈ 0.48 µg/mL).

As to `CCCn1cc(C(=O)O)c(=O)c2ccc(N3CCNCC3)cc21`, the “log(1/C)” value is reported as 2.203 and the minimum inhibitory concentration (MIC) was determined as 6.26 µM (≈ 1.98 µg/mL).

Turning to `CCCn1cc(C(=O)O)c(=O)c2ccc(N3CCNC(C)C3)cc21` (configuration not stated), the “log(1/C)” value was determined as 2.222 and the MIC turned out to be 6 µM (≈ 1.98 µg/mL).

For the compound `CCCn1cc(C(=O)O)c(=O)c2ccc(N3CC(C)NC(C)C3)cc21` (configuration not stated), the “log(1/C)” value came out at 2.541 and the minimal inhibitory concentration (MIC) was 2.88 µM (≈ 0.989 µg/mL).

With `CCCn1cc(C(=O)O)c(=O)c2ccc(N3CCN(CC)CC3)cc21`, the “log(1/C)” value is 2.842 and the lowest concentration to inhibit growth (MIC) was 1.44 µM (≈ 0.494 µg/mL).

As to `CCCn1cc(C(=O)O)c(=O)c2ccc(N3CCC(N)C3)cc21` (configuration not stated), the “log(1/C)” value came to 1.902 and the MIC amounted to 12.5 µM (≈ 3.95 µg/mL).

For `CCCn1cc(C(=O)O)c(=O)c2ccc(N3CCC(CNC)C3)cc21` (configuration not stated), the “log(1/C)” value was found to be 1.638 and the minimal inhibitory concentration (MIC) was determined as 23 µM (≈ 7.91 µg/mL).

For the compound `CC(C)(C)n1cc(C(=O)O)c(=O)c2ccc(N3CCNCC3)cc21`, the “log(1/C)” value stood at 3.427 and the minimal inhibitory concentration (MIC) was found to be 0.374 µM (≈ 0.123 µg/mL).

For the compound `CCC1CN(c2ccc3c(=O)c(C(=O)O)cn(C4CC4)c3c2)CCN1` (configuration not stated), the “log(1/C)” value is listed as 3.158 and the MIC worked out at 0.696 µM (≈ 0.238 µg/mL).

For the compound `CCN1CCN(c2ccc3c(=O)c(C(=O)O)cn(C4CC4)c3c2)CC1`, the “log(1/C)” value was 3.442 and 0.362 µM (≈ 0.124 µg/mL) was the least that counted as inhibitory (MIC).

As for `CC(C)N1CCN(c2ccc3c(=O)c(C(=O)O)cn(C4CC4)c3c2)CC1`, the “log(1/C)” value was 3.174 and the lowest concentration to inhibit growth (MIC) was 0.669 µM (≈ 0.238 µg/mL).

As for `CC(C)CN1CCN(c2ccc3c(=O)c(C(=O)O)cn(C4CC4)c3c2)CC1`, the “log(1/C)” value turned out to be 3.19 and the MIC was 0.645 µM (≈ 0.238 µg/mL).

For `CCCCN1CCN(c2ccc3c(=O)c(C(=O)O)cn(C4CC4)c3c2)CC1`, the “log(1/C)” value came out at 2.889 and the minimum inhibitory concentration (MIC) was found to be 1.29 µM (≈ 0.477 µg/mL).

On to `CNCC1CCN(c2ccc3c(=O)c(C(=O)O)cn(C4CC4)c3c2)C1` (configuration not stated), for which the “log(1/C)” value turned out to be 2.857 and the MIC is 1.39 µM (≈ 0.475 µg/mL).

Turning to `CCNCC1CCN(c2ccc3c(=O)c(C(=O)O)cn(C4CC4)c3c2)C1` (configuration not stated), the “log(1/C)” value was determined as 2.873 and the MIC is 1.34 µM (≈ 0.476 µg/mL).

As to `CC(C)NCC1CCN(c2ccc3c(=O)c(C(=O)O)cn(C4CC4)c3c2)C1` (configuration not stated), the “log(1/C)” value is reported as 2.889 and the MIC turned out to be 1.29 µM (≈ 0.477 µg/mL).

`CN(C)CC1CCN(c2ccc3c(=O)c(C(=O)O)cn(C4CC4)c3c2)C1` (configuration not stated): the “log(1/C)” value is listed as 2.873 and the MIC came out at 1.34 µM (≈ 0.476 µg/mL).

`CC1(CN)CCN(c2ccc3c(=O)c(C(=O)O)cn(C4CC4)c3c2)C1` (configuration not stated): the “log(1/C)” value stood at 3.777 and the minimal inhibitory concentration (MIC) stood at 0.167 µM (≈ 0.057 µg/mL).

Turning to `CN1CCN(c2ccc3c(=O)c(C(=O)O)cn(C4CC4)c3c2)CC1`, the “log(1/C)” value came to 3.14 and the MIC amounted to 0.724 µM (≈ 0.237 µg/mL).

Consider `CC1CN(c2ccc3c(=O)c(C(=O)O)cn(C4CC4)c3c2)CCN1` (configuration not stated), for which the “log(1/C)” value is given as 3.14 and it took 0.724 µM (≈ 0.237 µg/mL) to inhibit growth (MIC).

Consider `CC1CN(c2ccc3c(=O)c(C(=O)O)cn(C4CC4)c3c2)CC(C)N1` (configuration not stated), for which the “log(1/C)” value is recorded as 3.442 and the lowest concentration to inhibit growth (MIC) was 0.362 µM (≈ 0.124 µg/mL).

On to `O=C(O)c1cn(C2CC2)c2cc(N3CCNCC3)ccc2c1=O`, for which the “log(1/C)” value came to 3.122 and the minimum inhibitory concentration (MIC) was found to be 0.754 µM (≈ 0.236 µg/mL).

Turning to `NC1CCN(c2ccc3c(=O)c(C(=O)O)cn(C4CC4)c3c2)C1` (configuration not stated), the “log(1/C)” value turned out to be 3.122 and 0.754 µM (≈ 0.236 µg/mL) was the least that counted as inhibitory (MIC).
